One data set deals with RSV A2. Put plainly: RSV plaque reduction assay. It counts as cell-based, respiratory syncytial virus (RSV). To be noted: human respiratory syncytial virus, HepG2, Hep-G2 cells, mean of at least two experiments. The method, then: (§1) Compounds were subjected to RSV plaque reduction assays according to the following protocol. Plaque EC50 and cell toxicity CC50 values are a mean of at least two experiments and figures are rounded to whole units.
Hep-G2 cells (ECACC, 85011430) were passaged in flasks and seeded in 24-well plates in DMEM containing antibiotics and supplemented with 10% FBS. During inoculation and subsequent incubation, cells were cultured in DMEM containing 2% FBS. 100 plaque forming unit/well of RSV (RSV A2 ECACC, 0709161v) was mixed with eight serial dilutions of compound. Subsequently, 100 μL of the virus/compound mixtures was added to confluent Hep-G2 cell monolayers. The cells and virus/compound mixtures were incubated at 37° C. in a humidified 5% CO2 incubator for 2 h prior to removal of the inoculum and addition of 1 mL of overlay (DMEM containing 2% FBS and 0.8% CMC) containing compound dilutions. The cells and were incubated at 37° C. in a humidified 5% CO2 incubator for 2 days.
Cells were washed with PBS before adding 75/25% […] EtOH/MeOH, for 3 min. Fixative was removed and plates were washed with PBS. A pre-titrated amount of the primary antibody was added in 200 μL PBS/2% milk powder, and plates incubated for 90 min at 37° C. The plates were washed 3 times with PBS/0.05% Tween20 before addition of rabbit anti-goat horse radish peroxidase in 200 μL PBS/2% milk powder, and incubated for 1 h at 37° C. Following three wash steps with PBS/0.05% Tween20, 200 μL ready-to-use TrueBlue was added and plates were incubated at rt for 10-15 min before washing with water. After removal of water, plates were air-dried in the dark.
(§2) Plates were scanned and analysed using the Immunospot S6 Macro analyser, which is equipped with BioSpot analysis software for counting immunostained plaques (virospots). Plaque counts were used to calculate % c infection relative to the mean of the plaque count in the virus control wells for RSV. The EC50 value was calculated as 50% reduction in signal, respectively, by interpolation of inhibition curves fitted with a 4-parameter nonlinear regression with a variable slope in Dotmatics. Plaque EC50 and cell toxicity CC50 values are a mean of at least two experiments and figures are rounded to whole units.
(In a plaque reduction assay, fewer plaques than in the control indicate reduced infectivity or spread.)

The next data set is described as follows: Cell cytotoxicity (CC50). It counts as cell-based. Conditions: human; mean of at least two experiments.
Source text: as §1, §2

Where only a bound is given, the exact number is not on record here.

This note sets out measurements from patent US11634425B2, “Pharmaceutical compounds” (priority 2019, dated 2023).

A word on the EC50: it is the concentration giving half of the maximal effect. A higher EC50 goes with lower potency in that assay. The term CC50 denotes the concentration that lowers cell viability or growth by half. Lower therefore signals greater toxicity to the cells.

Consider `Cc1ccc2nc(-c3ccccc3)c(C(=O)N[C@H]3N=C(c4ccccc4)c4ccccc4NC3=O)n2n1` [Example 92, 6-Methyl-N-[(3S)-2-oxo-5-phenyl-1,3-dihydro-1,4-benzodiazepin-3-yl]-2-phenylimidazo[1,2-b]pyridazine-3-carboxamide], for which, in the data set on RSV A2, the EC50 was found to be 48 nM. In the data set “Cell cytotoxicity (CC50)”, this molecule gave a CC50 above 25000 nM.
`O=C(N[C@H]1N=C(c2ccccc2)c2ccccc2NC1=O)c1c(-c2ccc(N3CCCC3)cc2F)nn2cccnc12` [Example 45, 2-(2-Fluoro-4-pyrrolidin-1-ylphenyl)-N-[(3S)-2-oxo-5-phenyl-1,3-dihydro-1,4-benzodiazepin-3-yl]pyrazolo[1,5-a]pyrimidine-3-carboxamide]: the response in the data set with RSV A2 was half-maximal at 103 nM (EC50). This molecule showed a CC50 in “Cell cytotoxicity (CC50)” above 25000 nM.
On to `O=C(N[C@H]1N=C(c2ccccc2)c2ccccc2NC1=O)c1c(-c2cc(F)ccc2F)nn2cccnc12` [Example 6, 2-(2,5-Difluorophenyl)-N-[(3S)-2-oxo-5-phenyl-1,3-dihydro-1,4-benzodiazepin-3-yl]pyrazolo[1,5-a]pyrimidine-3-carboxamide], for which, in the data set on RSV A2, a half-maximal response (EC50) required 94 nM. In “Cell cytotoxicity (CC50)”, this molecule came in with a CC50 above 25000 nM.
For `CC(C)c1ccc(-c2nn3cccnc3c2C(=O)N[C@H]2N=C(c3ccccc3)c3ccccc3NC2=O)cn1` [Example 58, 2-(6-Propan-2-ylpyridin-3-yl)-N-[(3S)-2-oxo-5-phenyl-1,3-dihydro-1,4-benzodiazepin-3-yl]pyrazolo[1,5-a]pyrimidine-3-carboxamide] the same measures were 69 nM and above 25000 nM.
On to `COc1nc(C)ccc1-c1nn2cccnc2c1C(=O)N[C@H]1N=C(c2ccccc2)c2ccccc2NC1=O` [Example 86, 2-(2-Methoxy-6-methylpyridin-3-yl)-N-[(3S)-2-oxo-5-phenyl-1,3-dihydro-1,4-benzodiazepin-3-yl]pyrazolo[1,5-a]pyrimidine-3-carboxamide], for which, in the data set with RSV A2, the EC50 was found to be 119 nM. The molecule further showed a CC50 in the data set “Cell cytotoxicity (CC50)” above 25000 nM.
Molecule `C[C@H]1COCCN1c1ccc(-c2nn3cccnc3c2C(=O)N[C@H]2N=C(c3ccccc3)c3ccccc3NC2=O)cn1` (single isomer, unassigned) [Example 124, 2-(6-[(3S*)-3-methylmorpholin-4-yl]pyridin-3-yl)-N-[(3S)-2-oxo-5-phenyl-2,3-dihydro-1H-1,4-benzodiazepin-3-yl]pyrazolo[1,5-a]pyrimidine-3-carboxamide] gave an EC50 in the data set with RSV A2 of 83 nM. In the data set “Cell cytotoxicity (CC50)”, this molecule showed a CC50 above 25000 nM.
The matching figures for `Cc1cncc(-c2nc3ccc(C)nn3c2C(=O)N[C@H]2N=C(c3ccccc3)c3cccc(F)c3NC2=O)c1` [Example 103, N-[(3S)-9-fluoro-2-oxo-5-phenyl-1,3-dihydro-1,4-benzodiazepin-3-yl]-6-methyl-2-(5-methylpyridin-3-yl)imidazo[1,2-b]pyridazine-3-carboxamide]: 82 nM and above 25000 nM.
For `CC1COCCN1c1ccc(-c2nn3cccnc3c2C(=O)N[C@H]2N=C(c3ccccc3)c3cccc(F)c3NC2=O)cn1` (stereo partly drawn) [Example 68, 2-[6-(3-Methylmorpholin-4-yl)pyridin-3-yl]-N-[(3S)-9-fluoro-2-oxo-5-phenyl-1,3-dihydro-1,4-benzodiazepin-3-yl]pyrazolo[1,5-a]pyrimidine-3-carboxamide] the same measures were 115 nM and above 25000 nM.
In the case of `Cc1cc(-c2nc3ccc(C)nn3c2C(=O)N[C@H]2N=C(c3ccccc3)c3cccc(F)c3NC2=O)ccn1` [Example 98, N-[(3S)-9-fluoro-2-oxo-5-phenyl-1,3-dihydro-1,4-benzodiazepin-3-yl]-6-methyl-2-(2-methylpyridin-4-yl)imidazo[1,2-b]pyridazine-3-carboxamide], it took 48 nM to reach a half-maximal effect in the data set with RSV A2 (EC50). This molecule also showed a CC50 in the data set “Cell cytotoxicity (CC50)” above 25000 nM.
For `CCNc1ccc(-c2nn3cccnc3c2C(=O)N[C@H]2N=C(c3ccccc3)c3cccc(F)c3NC2=O)c(F)n1` [Example 66, 2-[6-(Ethylamino)-2-fluoropyridin-3-yl]-N-[(3S)-9-fluoro-2-oxo-5-phenyl-1,3-dihydro-1,4-benzodiazepin-3-yl]pyrazolo[1,5-a]pyrimidine-3-carboxamide] the same measures were 13 nM and above 25000 nM.
Molecule `Cc1ccn2nc(-c3ccccc3F)c(C(=O)N[C@H]3N=C(c4ccccc4)c4ccccc4NC3=O)c2n1` [Example 22, 2-(2-Fluorophenyl)-5-methyl-N-[(3S)-2-oxo-5-phenyl-1,3-dihydro-1,4-benzodiazepin-3-yl]pyrazolo[1,5-a]pyrimidine-3-carboxamide] came in with an EC50 in the data set on RSV A2 of 33 nM. The molecule further gave a CC50 in “Cell cytotoxicity (CC50)” above 25000 nM.
The molecule `CCOc1ccc(-c2nn3cccnc3c2C(=O)N[C@H]2N=C(c3ccccc3)c3cccc(F)c3NC2=O)cn1` [Example 53, 2-(6-Ethoxypyridin-3-yl)-N-[(3S)-9-fluoro-2-oxo-5-phenyl-1,3-dihydro-1,4-benzodiazepin-3-yl]pyrazolo[1,5-a]pyrimidine-3-carboxamide] showed an EC50 in the data set on RSV A2 of 98 nM. The CC50 in “Cell cytotoxicity (CC50)” is above 25000 nM.
`CCNc1ccc(-c2nn3cccnc3c2C(=O)N[C@H]2N=C(c3ccccc3)c3ccccc3NC2=O)c(F)n1` [Example 65, 2-[6-(Ethylamino)-2-fluoropyridin-3-yl]-N-[(3S)-2-oxo-5-phenyl-1,3-dihydro-1,4-benzodiazepin-3-yl]pyrazolo[1,5-a]pyrimidine-3-carboxamide] returned an EC50 in the data set with RSV A2 of 18 nM. Besides, in the data set “Cell cytotoxicity (CC50)”, the CC50 is above 25000 nM.
As to `Cc1ccc2nc(-c3cncc(F)c3)c(C(=O)N[C@H]3N=C(c4ccccc4)c4ccccc4NC3=O)n2n1` [Example 101, 2-(5-Fluoropyridin-3-yl)-6-methyl-N-[(3S)-2-oxo-5-phenyl-1,3-dihydro-1,4-benzodiazepin-3-yl]imidazo[1,2-b]pyridazine-3-carboxamide], the EC50 in the data set with RSV A2 was 81 nM. This molecule gave a CC50 in “Cell cytotoxicity (CC50)” above 25000 nM.
As to `Cc1ccc2nc(-c3ccc(F)cc3F)c(C(=O)N[C@H]3N=C(c4ccccc4)c4ccccc4NC3=O)n2n1` [Example 90, 2-(2,4-Difluorophenyl)-6-methyl-N-[(3S)-2-oxo-5-phenyl-1,3-dihydro-1,4-benzodiazepin-3-yl]imidazo[1,2-b]pyridazine-3-carboxamide], the midpoint of the response with RSV A2, the EC50, lay at 8 nM. Besides, the CC50 in “Cell cytotoxicity (CC50)” is above 25000 nM.
In turn, `COCCc1ccc(-c2nn3cccnc3c2C(=O)N[C@H]2N=C(c3ccccc3)c3cccc(F)c3NC2=O)cn1` [Example 51, 2-[6-(2-methoxyethyl)pyridin-3-yl]-N-[(3S)-9-fluoro-2-oxo-5-phenyl-1,3-dihydro-1,4-benzodiazepin-3-yl]pyrazolo[1,5-a]pyrimidine-3-carboxamide] displayed an EC50 in the data set with RSV A2 of 92 nM. Moreover, in the data set “Cell cytotoxicity (CC50)”, the CC50 is above 25000 nM.
In turn, `[2H]C([2H])([2H])Oc1ccc2nc(-c3ccc(CC)nc3)c(C(=O)N[C@H]3N=C(c4ccccc4)c4cccc(F)c4NC3=O)n2n1` [Example 123, 2-(6-Ethylpyridin-3-yl)-N-[(3S)-9-fluoro-2-oxo-5-phenyl-2,3-dihydro-1H-1,4-benzodiazepin-3-yl]-6-(^2H3)methoxyimidazo[1,2-b]pyridazine-3-carboxamide] came in with an EC50 in the data set on RSV A2 of 45 nM. The same molecule returned a half-maximal cytotoxic concentration (CC50) in “Cell cytotoxicity (CC50)” above 25000 nM.
The molecule `COCCOc1ccc2nc(-c3ccccc3F)c(C(=O)N[C@H]3N=C(c4ccccc4)c4cccc(F)c4NC3=O)n2n1` [Example 110, N-[(3S)-9-Fluoro-2-oxo-5-phenyl-1,3-dihydro-1,4-benzodiazepin-3-yl]-2-(2-fluorophenyl)-6-(2-methoxyethoxy)imidazo[1,2-b]pyridazine-3-carboxamide] gave an EC50 with RSV A2 of 73 nM. Besides, in “Cell cytotoxicity (CC50)”, the CC50 was above 25000 nM.
